In general, EC50 refers to the concentration at which the effect is half-maximal.

We go through three compounds from patent publication US20110313672A1, “CELLULAR ANTIOXIDANT ACTIVITY (CAA) ASSAY” (CORNELL UNIVERSITY, priority 2007, published 2011).

One test relates to HepG2 cells. Put plainly: Cellular antioxidant activity (CAA) assay: inhibition of peroxyl radical-induced DCFH oxidation. Type of test: cell-based, human. The settings on record: for CAA value: Example 1, pure compounds, EC50 converted to quercetin equivalents.
Test [1] can be described thus: Oxygen radical absorbance capacity (ORAC) assay. The settings on record: Example 3; flavonoids; mean ± SD, n ≧ 3. As to the method:
The peroxyl radical scavenging efficacy of selected fruits was measured using the ORAC assay (Prior, R. L., et al (2003) J. Agric. Food Chem. 51:3273-3279). Briefly, 20 μL of blank, Trolox standard, or fruit extracts in 75 mM potassium phosphate buffer, pH 7.4 (working buffer), was added to triplicate wells in a black, clear-bottom, 96-well microplate. The triplicate samples were distributed throughout the microplate and were not placed side-by-side, to avoid any effects on readings due to location. In addition, no outside wells were used, as use of those wells results in greater variation. A volume of 200 μL of 0.96 μM fluorescein in working buffer was added to each well and incubated at 37° C. for 20 min, with intermittent shaking, before the addition of 20 μL of freshly prepared 119 mM ABAP in working buffer using a 12-channel pipetter. The microplate was immediately inserted into a Fluoroskan Ascent FL plate reader (ThermoLabsystems) at 37° C. The decay of fluorescence at 538 nm was measured with excitation at 485 nm every 4.5 min for 2.5 h. The areas under the fluorescence versus time curve for the samples minus the area under the curve for the blank were calculated and compared to a standard curve of the areas under the curve for 6.25, 12.5, 25, and 50 μM Trolox standards minus the area under the curve for blank. ORAC values were expressed as mean micromoles of Trolox equivalents (TE) per 100 g of fruit±SD for triplicate data from one experiment.
ORAC measurements were performed as described herein in Example 2.

Where [2] appears, read: Example 3, Table 7, no PBS wash.

Values joined by “and” are separate entries in the source; they are usually repeats but may differ in a detail not shown here. Identical values can stand only once. “Also recorded” adds a separate entry of the source. Like-named read-outs stand apart in the source and are kept apart here.

With `O=c1c(O)c(-c2ccc(O)cc2O)oc2cc(O)cc(O)c12` [morin], the CAA with HepG2 cells (Example 3, Table 7, PBS wash) was 18.6 ± 18 μmol of QE/100 μmol; in the test on HepG2 cells (setting [2]) it was 32.1 ± 2.1 μmol of QE/100 μmol. Further, the EC50 with HepG2 cells (Homo sapiens, HepG2, Example 3, Table 7, PBS wash, flavonoids, mean ± SD, n=3, read-out: EC50) amounted to 43.9 ± 4.3 µM; in the test on HepG2 cells (Homo sapiens, HepG2, Example 3, Table 7, no PBS wash, flavonoids, mean ± SD, n=3, read-out: EC50), 27.6 ± 1.8 µM; with HepG2 cells (Homo sapiens, HepG2, Example 3, text b252, PBS wash, read-out: EC50) it was 43.9 ± 0.43 µM; in the test with HepG2 cells (Homo sapiens, HepG2, Example 3, text b252, no PBS wash, read-out: EC50), 27.6 ± 1.8 µM. For the same compound, in test [1], the ORAC was 6.12±1.95 μmol of TE/μmol and 6.12 ± 1.95 efg μmol of TE/μmol.
With `O=C1C[C@@H](c2ccc(O)cc2)Oc2cc(O)cc(O)c21` [naringenin], the “cellular antioxidant activity, result in words” value with HepG2 cells (CAA assay, either protocol or protocol not specified) is recorded as “no activity; also recorded: no CAA”; in the test on HepG2 cells (no PBS wash protocol), “none”. In addition, the concentration for a half-maximal effect (EC50) result is on record as “no activity” in the test with HepG2 cells (Example 3, Table 7, PBS wash, flavonoids, mean ± SD, n=3) and “no activity” in the test with HepG2 cells (Example 3, Table 7, no PBS wash, flavonoids, mean ± SD, n=3). The ORAC in test [1] is recorded as 9.23 ± 2.79 bcd μmol of TE/μmol.
Take (−)-epigallocatechin gallate [EGCG]: the EC50 amounted to 15.8 ± 0.4 µM in the test on HepG2 cells (Example 1, Table 1, PBS wash, pure phytochemical compounds, mean ± SD, n=3, read-out: EC50 for inhibition of peroxyl radical-induced DCFH oxidation); 14 ± 1 µM with HepG2 cells (Example 1, Table 1, no PBS wash, pure phytochemical compounds, mean ± SD, n=3, read-out: EC50 for inhibition of peroxyl radical-induced DCFH oxidation); 12.8 ± 0.9 µM in the test on HepG2 cells (Example 3, Table 7, PBS wash, flavonoids, mean ± SD, n=3, read-out: EC50); 12.3 ± 0.7 µM with HepG2 cells (Example 3, Table 7, no PBS wash, flavonoids, mean ± SD, n=3, read-out: EC50). Besides, the CAA value in the test with HepG2 cells (PBS wash) turned out to be 32.3 ± 0.9 µmol QE/100 µmol; in the test with HepG2 cells (no PBS wash) it was 42.2±3.1 μmol QE/100 μmol. The CAA is listed as 63.8 ± 4.4 μmol of QE/100 μmol in the test with HepG2 cells (Example 3, Table 7, PBS wash) and 72.1 ± 3.8 μmol of QE/100 μmol with HepG2 cells (setting [2]). In addition, the ORAC in test [1] was 4.55±0.40 μmol of TE/μmol and 4.55 ± 0.40 fgh μmol of TE/μmol.
